Measurements taken from patent US12371454B2, “Cyclic peptide compound having Kras inhibitory action” (priority 2019, dated 2025).
Starred links: 1 amine or outer side, 2 acyl side, 3 side chain; linkers in the order of their positions; H or OH if unused. Positions of bridges follow the written chain, without caps; N, C: chain ends. Non-standard residues stand in square brackets, D forms with d. Residues, ends and D or L forms follow the SMILES beside them. *: point of attachment. hPhe(3,5-F2-4-CF3) = N[C@@H](CCc1cc(F)c(C(F)(F)F)c(F)c1)C(=O)O; hPhe(3-Cl-4-CF3) = N[C@@H](CCc1ccc(C(F)(F)F)c(Cl)c1)C(=O)O; NMeDab(N,N-(CH2CF2CH2)) = CN[C@@H](CCN1CC(F)(F)C1)C(=O)O; hPhe(3-F,4-CF3) = N[C@@H](CCc1ccc(C(F)(F)F)c(F)c1)C(=O)O; NMePhe(4-CF3) = CN[C@@H](Cc1ccc(C(F)(F)F)cc1)C(=O)O; hPhe(4-CF3) = N[C@@H](CCc1ccc(C(F)(F)F)cc1)C(=O)O; NMeAbu(4,4,4-F3) = CN[C@@H](CC(F)(F)F)C(=O)O; NMePhe(4-Cl) = CN[C@@H](Cc1ccc(Cl)cc1)C(=O)O; NMePhe(4-Me) = CN[C@@H](Cc1ccc(C)cc1)C(=O)O; NMedβ3hAla = C[C@H](CC(=O)[*:2])N(C)[*:1]; Phe(3-Br) = N[C@@H](Cc1cccc(Br)c1)C(=O)O; NMeGly(cPent) = CN[C@H](C(=O)O)C1CCCC1; Phe(3-I) = N[C@@H](Cc1cccc(I)c1)C(=O)O; Pro(4,4-F2) = O=C(O)[C@@H]1CC(F)(F)CN1; Phe(2-F) = N[C@@H](Cc1ccccc1F)C(=O)O; NMeCha = CN[C@@H](CC1CCCCC1)C(=O)O; NMeChg = CN[C@H](C(=O)O)C1CCCCC1; NMeF = CN[C@@H](Cc1ccccc1)C(=O)O; NMeI = CC[C@H](C)[C@H](NC)C(=O)O; NMeD = CN[C@@H](CC(=O)O)C(=O)O; NMeL = CN[C@@H](CC(C)C)C(=O)O; d(β3hA) = C[C@@H](N)CC(=O)O; NMeS = CN[C@@H](CO)C(=O)O; Morpholide = C1CN(*)CCO1; NMeA = CN[C@@H](C)C(=O)O; NMeAib = CNC(C)(C)C(=O)O; Nle = CCCC[C@H](N)C(=O)O; Piperidide = C1CCN(*)CC1; Pyrrolidide = C1CCN(*)C1; dNMeA = CN[C@H](C)C(=O)O; Ac5c = NC1(C(=O)O)CCCC1; Aze = O=C(O)[C@@H]1CCN1; βAla = NCCC(=O)O; Sar = CNCC(=O)O; Propyl = CCC*

These compounds were tested against T1, Kras and SOS1 (biotin-tagged human Kras loaded with GDP, His-tagged human SOS1) (Homo sapiens, UniProt P01116, G12D) (assay: Protein-protein interaction inhibition between Kras and SOS1 (KrasGl2D-SOS PPI) using AlphaScreen). Conditions: AlphaScreen; biotin-tagged human Kras loaded with GDP, His-tagged human SOS1; read-out: KRAS G12D-SOS PPI IC50.
T1 construct: made in house; host or cells: E. coli (stated for Kras only)
T1 sequence (P01116 1-188 isoform P01116-2 G12D): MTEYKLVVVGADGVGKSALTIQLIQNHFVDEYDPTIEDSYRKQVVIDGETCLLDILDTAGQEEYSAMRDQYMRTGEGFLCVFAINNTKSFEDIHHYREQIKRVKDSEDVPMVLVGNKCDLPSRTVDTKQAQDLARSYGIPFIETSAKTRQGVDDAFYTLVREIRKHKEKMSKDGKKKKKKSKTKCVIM
Format: binding
Method in brief: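 Read-out is acceptor-bead light at 520-620 nm, arising when 680 nm-irradiated nickel donor beads pass singlet oxygen to streptavidin acceptors. The bead pair links His-tagged SOS1 with biotin-tagged, GDP-bound Kras from E. coli.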

Row | SMILES | IC50 [nM]
1 | CC[C@H](C)[C@@H]1NC(=O)[C@H](C)N(C)C(=O)CCNC(=O)[C@H](CC(C)C)N(C)C(=O)[C@H](Cc2ccccc2)N(C)C(=O)[C@@H]2CCCN2C(=O)[C@H](CCc2ccc(C(F)(F)F)cc2)NC(=O)CN(C)C(=O)[C@H](Cc2ccc(Cl)cc2)N(C)C(=O)CN(C)C(=O)CN(C)C1=O [Compound 1086] (cyclo(I[Sar][Sar][NMePhe(4-Cl)][Sar][hPhe(4-CF3)]P[NMeF][NMeL][βAla][NMeA])) | 180
2 | CC[C@H](C)[C@@H]1NC(=O)[C@H](CC(C)C)N(C)C(=O)C[C@@H](C(=O)N2CCOCC2)NC(=O)[C@H]([C@@H](C)CC)N(C)C(=O)C2(CCCC2)NC(=O)[C@@H]2CCCN2C(=O)[C@H](CCc2ccc(C(F)(F)F)c(Cl)c2)NC(=O)CN(C)C(=O)[C@H](CC2CCCCC2)N(C)C(=O)CN(C)C(=O)CN(C)C1=O [Compound 1277] ([NMeL]I[Sar][Sar][NMeCha][Sar][hPhe(3-Cl-4-CF3)]P[Ac5c][NMeI]D-Morpholide; lactam N-11) | 6.7
3 | CC[C@H](C)[C@@H]1NC(=O)[C@H](CC(C)C)N(C)C(=O)C[C@@H](C)N(C)C(=O)[C@H](CC(C)C)NC(=O)C(C)(C)N(C)C(=O)[C@H](CC(C)C)NC(=O)[C@H](CCc2ccc(C(F)(F)F)c(Cl)c2)NC(=O)CN(C)C(=O)[C@H](Cc2ccc(C)cc2)N(C)C(=O)[C@@H]2CCN2C(=O)[C@H](C)N(C)C1=O [Compound 1379] (cyclo([Aze][NMePhe(4-Me)][Sar][hPhe(3-Cl-4-CF3)]L[NMeAib]L[NMedβ3hAla][NMeL]I[NMeA])) | 64
4 | CC[C@H](C)[C@@H]1NC(=O)[C@H](C)N(C)C(=O)C[C@@H](C)NC(=O)[C@H](C2CCCC2)N(C)C(=O)C2(CCCC2)NC(=O)[C@@H]2CCCN2C(=O)[C@H](CCc2ccc(C(F)(F)F)c(Cl)c2)NC(=O)[C@@H](C)N(C)C(=O)[C@H](Cc2ccc(C(F)(F)F)cc2)N(C)C(=O)[C@@H]2CCN2C(=O)CN(C)C1=O [Compound 1507] (cyclo([Ac5c][NMeGly(cPent)][d(β3hA)][NMeA]I[Sar][Aze][NMePhe(4-CF3)][dNMeA][hPhe(3-Cl-4-CF3)]P)) | 24
5 | CC[C@H](C)[C@@H]1NC(=O)[C@H](CC(F)(F)F)N(C)C(=O)C[C@@H](C(=O)N2CCOCC2)N(C)C(=O)[C@H](C2CCCCC2)N(C)C(=O)C2(CCCC2)NC(=O)[C@@H]2CC(F)(F)CN2C(=O)[C@H](CCc2cc(F)c(C(F)(F)F)c(F)c2)NC(=O)CN(C)C(=O)[C@H](Cc2ccc(C(F)(F)F)cc2)N(C)C(=O)CN(C)C(=O)CN(C)C1=O [Compound 1260] ([NMeAbu(4,4,4-F3)]I[Sar][Sar][NMePhe(4-CF3)][Sar][hPhe(3,5-F2-4-CF3)][Pro(4,4-F2)][Ac5c][NMeChg][NMeD]-Morpholide; lactam N-11) | 0.54
6 | CCCC[C@@H]1NC(=O)[C@H](Cc2cccc(Br)c2)NC(=O)CN(C)C(=O)[C@H](Cc2ccc(Cl)cc2)N(C)C(=O)CN(C)C(=O)CN(C)C(=O)[C@H]([C@@H](C)CC)NC(=O)[C@H](CC(C)C)N(C)C(=O)C[C@@H](C(=O)N2CCCCC2)N(C)C(=O)[C@H](CC(C)C)NC(=O)C(C)(C)N(C)C1=O [Compound 1404] ([NMeL]I[Sar][Sar][NMePhe(4-Cl)][Sar][Phe(3-Br)][Nle][NMeAib]L[NMeD]-Piperidide; lactam N-11) | 17
7 | CC[C@H](C)[C@@H]1NC(=O)[C@H](CC(C)C)N(C)C(=O)C[C@@H](C(=O)N2CCCCC2)N(C)C(=O)[C@H](CC(C)C)NC(=O)C(C)(C)N(C)C(=O)[C@H](Cc2ccccc2F)NC(=O)[C@H](Cc2cccc(I)c2)NC(=O)CN(C)C(=O)[C@H](Cc2ccc(C)cc2)N(C)C(=O)CN(C)C(=O)CN(C)C1=O [Compound 556] ([NMeL]I[Sar][Sar][NMePhe(4-Me)][Sar][Phe(3-I)][Phe(2-F)][NMeAib]L[NMeD]-Piperidide; lactam N-11) | 30
8 | CCCOC[C@H]1C(=O)N(C)CC(=O)N[C@@H](CCc2ccc(C(F)(F)F)c(F)c2)C(=O)N2CCC[C@H]2C(=O)NC2(CCCC2)C(=O)N(C)[C@@H](C2CCCC2)C(=O)N(C)[C@H](C(=O)N2CCCC2)CC(=O)N(C)[C@@H](CC(C)C)C(=O)N[C@@H]([C@@H](C)CC)C(=O)N(C)[C@@H](C)C(=O)N2CC[C@H]2C(=O)N1C [Compound 987] ([NMeL]I[NMeA][Aze][NMeS](Propyl)[Sar][hPhe(3-F,4-CF3)]P[Ac5c][NMeGly(cPent)][NMeD]-Pyrrolidide; lactam N-11) | 0.96
9 | CC[C@H](C)[C@@H]1NC(=O)[C@H](CC(C)C)N(C)C(=O)C[C@@H](C(=O)N(C)C)N(C)C(=O)[C@H](C2CCCC2)N(C)C(=O)[C@H](COC)NC(=O)[C@H](CCN2CC(F)(F)C2)N(C)C(=O)[C@H](CCc2ccc(C(F)(F)F)c(Cl)c2)NC(=O)CN(C)C(=O)[C@H](CC2CCCCC2)N(C)C(=O)[C@@H]2CCN2C(=O)[C@H](C)N(C)C1=O [Compound 130] ([NMeL]I[NMeA][Aze][NMeCha][Sar][hPhe(3-Cl-4-CF3)][NMeDab(N,N-(CH2CF2CH2))]S(Me)[NMeGly(cPent)][NMeD]-NMe2; lactam N-11) | 10
